Assay results reported in patent US10787444B2, “Compounds for the modulation of myc activity” (Syros Pharmaceuticals, Inc., priority 2015, dated 2020).
Where two headings read alike, the source gives them in different places.

Legend:
[1] = test system: human small lung cancer cell line H2171; experiment: Cell Viability Assay (ATPlite); assay type: cell-based; conditions: read-out: H2171 Activity
Outline: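 H2171 cells were plated at 20,000 cells/mL and dosed immediately by pin transfer with a 10-point dose series in DMSO. After three days at 37° C, ATPlite luminescence served as the viability readout.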

c-Myc/Max/Ebox DNA = molecular target: T1, c-Myc/Max/Ebox DNA (Homo sapiens, UniProt P01106); experiment: c-Myc/Max/Ebox DNA AlphaScreen Assay; assay type: binding; conditions: calculated IC50 class
T1 construct: his6 (cleaved yes)
T1 sequence (P01106 whole entry): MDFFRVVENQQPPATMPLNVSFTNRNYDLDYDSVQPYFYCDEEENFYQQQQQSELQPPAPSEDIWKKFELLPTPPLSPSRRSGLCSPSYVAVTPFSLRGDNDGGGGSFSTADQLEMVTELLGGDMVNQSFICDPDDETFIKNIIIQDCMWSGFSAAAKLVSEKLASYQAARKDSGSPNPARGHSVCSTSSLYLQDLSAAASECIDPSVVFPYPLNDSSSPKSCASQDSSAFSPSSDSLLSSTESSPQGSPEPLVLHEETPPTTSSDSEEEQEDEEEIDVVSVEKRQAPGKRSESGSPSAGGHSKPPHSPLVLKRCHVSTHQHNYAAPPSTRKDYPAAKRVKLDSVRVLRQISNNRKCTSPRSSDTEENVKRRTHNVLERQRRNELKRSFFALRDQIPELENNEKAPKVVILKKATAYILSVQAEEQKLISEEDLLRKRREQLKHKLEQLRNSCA
Outline: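 Compounds were preincubated with free c-Myc (20 nM), biotinylated single-Ebox DNA (10 nM) and Ni acceptor beads before his6-Max (5 nM) and streptavidin donor beads were added. Buffer was 50 mM HEPES pH 8.0, 150 mM NaCl, BSA, Tween20, glycogen and DTT, with DMSO ≤2%. After 2 h incubation, AlphaScreen signal was read at 680 nm excitation and 520–620 nm emission.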

[2] = Table 2, compounds of FIG. 1, H2171 cells, three days, ATPlite, calculated IC50 class
[3] = Homo sapiens, NCI-H2171, 72 h, Table 2, compounds of FIG. 1, H2171 cells, three days, ATPlite, calculated IC50 class

SMILES	IC50 (c-Myc/Max/Ebox DNA; Table 2, compounds of FIG. 1) [nM]	IC50 [1, 3] [nM]	also measured
COCCNCCC(=O)Nc1sc2c(c1-c1nc3cc(-c4ccncc4)ccc3s1)CCNC2C (single isomer, unassigned) [Compound 569, 3-((2-Methoxyethyl)amino)-N-(7-methyl-3-(5-(pyridin-4-yl)benzo[d]thiazol-2-yl)-4,5,6,7-tetrahydrothieno[2,3-c]pyridin-2-yl)propanamide]	1000 to 10000	–	IC50 [1, 2]: 1000 to 10000 nM
CC[C@H](C)NCCC(=O)Nc1sc2c(c1-c1nc3cc(-c4ccncc4)ccc3s1)CCN(C1CC1)C2 [Compound 618, (S)-3-(sec-butylamino)-N-(6-cyclopropyl-3-(5-(pyridin-4-yl)benzo[d]thiazol-2-yl)-4,5,6,7-tetrahydrothieno[2,3-c]pyridin-2-yl)propanamide]	< 300	< 300	–
CC[C@H](C)NCCC(=O)Nc1sc2c(c1-c1nc3cc(C(F)(F)F)ccc3s1)CC(C)NC2C (single isomer, unassigned) [Compound 587]	> 10000	–	IC50 [1, 2]: 300 to 1000 nM
COCCNCCC(=O)Nc1sc2c(c1-c1nc3c(CO)cccc3s1)CCNC2 [compound 598]	< 300	< 300	–
CNCCC(=O)Nc1sc2c(c1-c1nc3ccccc3s1)CCNC2 [Compound 128, N-(3-(benzo[d]thiazol-2-yl)-4,5,6,7-tetrahydrothieno[2,3-c]pyridin-2-yl)-3-(methylamino)propanamide]	< 300	< 300	–
CC[C@H](C)NCCC(=O)Nc1sc2c(c1-c1nc3cc(C(F)(F)F)ccc3s1)CC(C)NC2C (single isomer, unassigned) [Compound 585]	< 300	–	IC50 [1, 2]: < 300 nM
COCCNCCC(=O)Nc1sc2c(c1-c1nc3ccccc3s1)CC(C)NC2C (single isomer, unassigned) [Compound 508, N-(3-(Benzo[d]thiazol-2-yl)-5,7-dimethyl-4,5,6,7-tetrahydrothieno[2,3-c]pyridin-2-yl)-3-((2-methoxyethyl)amino)propanamide]	1000 to 10000	< 300	–
CC(C)N1CCc2c(sc(NC(=O)CCN3CCC3)c2-c2nc3ccccc3s2)C1 [Compound 541, 3-(Azetidin-1-yl)-N-(3-(benzo[d]thiazol-2-yl)-6-isopropyl-4,5,6,7-tetrahydrothieno[2,3-c]pyridin-2-yl)propanamide]	300 to 1000	–	IC50 ([1]; Homo sapiens, NCI-H2171, 72 h): < 300 nM
COCCNCCC(=O)Nc1sc2c(c1-c1nc3ccc(-c4cccc(C(=O)NCCN(C)C)c4)cc3s1)CCNC2 [compound 493]	< 300	< 300	–
O=C(CCN[C@@H]1C[C@H]2CNC[C@H]2C1)Nc1sc2c(c1-c1nc3ccccc3s1)CCNC2 [Compound 573, N-(3-(Benzo[d]thiazol-2-yl)-4,5,6,7-tetrahydrothieno[2,3-c]pyridin-2-yl)-3-(((3aR,5s,6aS)-octahydrocyclopenta[c]pyrrol-5-yl)amino)propanamide]	300 to 1000	300 to 1000	–
CCC(C)NCCC(=O)Nc1sc2c(c1-c1nc3cc(C(F)(F)F)ccc3s1)CCN(C(C)C)C2 (centres unmarked) [Compound 142, 3-(sec-butylamino)-N-(6-isopropyl-3-(5-(trifluromethyl)benzo[d]thiazol-2-yl)-4,5,6,7-tetrahydrothieno[2,3-c]pyridin-2-yl)propanamide]	< 300	< 300	–
CC(C)NCCC(=O)Nc1sc2c(c1-c1nc3cc(C(=O)N4CCN(C)CC4)ccc3s1)CCNC2 [Compound 324, 3-(Isopropylamino)-N-(3-(5-(4-methylpiperazine-1-carbonyl)benzo[d]thiazol-2-yl)-4,5,6,7-tetrahydrothieno[2,3-c]pyridin-2-yl)propanamide]	300 to 1000	1000 to 10000	–
CC[C@H](C)NCCC(=O)Nc1sc2c(c1-c1nc3ccccc3s1)CCN(C1CC1)C2 [Compound 596, (S)—N-(3-(benzo[d]thiazol-2-yl)-6-cyclopropyl-4,5,6,7-tetrahydrothieno[2,3-c]pyridin-2-yl)-3-(sec-butylamino)propanamide]	> 10000	300 to 1000	–
COCCNCCC(=O)Nc1sc2c(c1-c1nc3cc(-c4cncc(N)c4)ccc3s1)CCNC2 [compound 443]	< 300	< 300	–
CC[C@H](C)NCCC(=O)Nc1sc2c(c1-c1nc3cc(C(F)(F)F)ccc3s1)CCNC2 [Compound 152, (S)-3-(sec-butylamino)-N-(3-(5-(trifluoromethyl)benzo[d]thiazol-2-yl)-4,5,6,7-tetrahydrothieno[2,3-c]pyridin-2-yl)propanamide]	< 300	< 300	–
COCCNCCC(=O)Nc1sc2c(c1-c1nc3ccc(-c4cccnc4)cc3s1)CC(C)NC2C (single isomer, unassigned) [Compound 527, N-(5,7-Dimethyl-3-(6-(pyridin-3-yl)benzo[d]thiazol-2-yl)-4,5,6,7-tetrahydrothieno[2,3-c]pyridin-2-yl)-3-((2-methoxyethyl)amino)propanamide]	300 to 1000	–	IC50 [1, 2]: < 300 nM
COCCNCCC(=O)Nc1sc2c(c1-c1nc3ccc(-c4cnn(C(C)C)c4)cc3s1)CCNC2 [compound 358]	< 300	< 300	–
CCN(C)CCC(=O)Nc1sc2c(c1-c1nc3ccccc3s1)CCN(C(C)C)C2 [Compound 572]	300 to 1000	< 300	–
CC(=O)Nc1sc2c(c1-c1nc3ccccc3s1)CCC(NCc1ccncc1)C2 (centres unmarked) [Compound 226, N-(3-(benzo[d]thiazol-2-yl)-6-((pyridin-4-ylmethyl)amino)-4,5,6,7-tetrahydrobenzo[b]thiophen-2-yl)acetamide]	–	–	IC50 ([1]; Homo sapiens, NCI-H2171, 72 h, Table 3, compounds of FIG. 2, H2171 cells, three days, ATPlite, calculated IC50 class): < 300 nM; IC50 (c-Myc/Max/Ebox DNA; Table 3, compounds of FIG. 2): > 10000 nM
CC[C@H](C)NCCC(=O)Nc1sc2c(c1-c1nc3ccccc3s1)CC(C)NC2C (single isomer, unassigned) [Compound 620]	1000 to 10000	–	IC50 [1, 2]: 1000 to 10000 nM
CC(=O)Nc1sc2c(c1-c1nc3ccccc3s1)C[C@@H](C)N[C@H]2C [Compound 218, N-((5R,7S)-3-(benzo[d]thiazol-2-yl)-5,7-dimethyl-4,5,6,7-tetrahydrothieno[2,3-c]pyridin-2-yl)acetamide]	–	–	IC50 ([1]; Table 3, compounds of FIG. 2, H2171 cells, three days, ATPlite, calculated IC50 class): < 300 nM; IC50 (c-Myc/Max/Ebox DNA; Table 3, compounds of FIG. 2): 1000 to 10000 nM
COCCN(CCOC)CCC(=O)Nc1sc2c(c1-c1nc3ccccc3s1)CCNC2 [Compound 309, N-(3-(benzo[d]thiazol-2-yl)-4,5,6,7-tetrahydrothieno[2,3-c]pyridin-2-yl)-3-(bis(2-methoxyethyl)amino)propanamide]	> 10000	< 300	–
CCNCCC(=O)Nc1sc2c(c1-c1nc3ccccc3s1)CCN(C(C)C)C2 [Compound 540, N-(3-(Benzo[d]thiazol-2-yl)-6-isopropyl-4,5,6,7-tetrahydrothieno[2,3-c]pyridin-2-yl)-3-(ethylamino)propanamide]	300 to 1000	–	IC50 ([1]; Homo sapiens, NCI-H2171, 72 h): < 300 nM
CCC(C)N(C)CCC(=O)Nc1sc2c(c1-c1nc3ccccc3s1)CCN(C(C)C)C2 (centres unmarked) [Compound 122]	< 300	–	IC50 [1, 2]: 300 to 1000 nM
COCCNCCC(=O)Nc1sc2c(c1-c1nc3ccccc3s1)CC(C)NC2C (centres unmarked) [Compound 506, N-(3-(Benzo[d]thiazol-2-yl)-5,7-dimethyl-4,5,6,7-tetrahydrothieno[2,3-c]pyridin-2-yl)-3-((2-methoxyethyl)amino)propanamide]	300 to 1000	–	IC50 [1, 2]: 1000 to 10000 nM
